Laboratory results as given in ChEMBL document CHEMBL1154629, “Design, synthesis and biological evaluation of novel thiazole derivatives as potent FabH inhibitors” (Bioorg Med Chem Lett, 2009).
≈ marks a conversion by molar mass, not a printed value.

Experiments:
Bacillus subtilis = assay: Antimicrobial activity Bacillus subtilis ATCC 6633 by MTT assay; assay type: functional
Staphylococcus aureus = assay: Antimicrobial activity Staphylococcus aureus ATCC 6538 by MTT assay; assay type: functional
Enterococcus faecalis = assay: Antimicrobial activity Streptococcus faecalis ATCC 9790 by MTT assay; assay type: functional
Enterobacter cloacae = assay: Antimicrobial activity Enterobacter cloacae ATCC 13047 by MTT assay; assay type: functional
Escherichia coli = assay: Antimicrobial activity Escherichia coli ATCC 35218 by MTT assay
Pseudomonas aeruginosa = assay: Antimicrobial activity Pseudomonas aeruginosa ATCC 13525 by MTT assay
[1] = target: T1, 3-oxoacyl-[acyl-carrier-protein] synthase 3 (Escherichia coli, UniProt C3TDZ2); assay: Inhibition of Escherichia coli FabH
T1 sequence (C3TDZ2 whole entry): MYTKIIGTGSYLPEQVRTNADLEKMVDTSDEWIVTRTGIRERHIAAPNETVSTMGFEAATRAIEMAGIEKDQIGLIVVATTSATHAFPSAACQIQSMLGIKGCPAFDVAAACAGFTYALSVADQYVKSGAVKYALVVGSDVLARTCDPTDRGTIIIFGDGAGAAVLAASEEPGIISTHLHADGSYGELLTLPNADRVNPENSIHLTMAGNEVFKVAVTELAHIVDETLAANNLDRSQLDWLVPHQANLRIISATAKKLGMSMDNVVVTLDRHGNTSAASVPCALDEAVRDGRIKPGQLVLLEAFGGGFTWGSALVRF

[2] = Toxicity in erythrocytes assessed as hemolysis; assay type: cell-based; conditions: erythrocyte

| SMILES | MIC (Bacillus subtilis) [µg/mL] | MIC (Staphylococcus aureus) [µg/mL] | MIC (Enterococcus faecalis) [µg/mL] | MIC (Enterobacter cloacae) [µg/mL] | MIC (Escherichia coli) [µg/mL] | MIC (Pseudomonas aeruginosa) [µg/mL] | IC50 [1] [µM] | LC30 [2] [µg/mL] |
| --- | --- | --- | --- | --- | --- | --- | --- | --- |
| CC1(C)S[C@@H]2[C@H](NC(=O)Cc3ccccc3)C(=O)N2[C@H]1C(=O)O [PENICILLIN G] | 1.56 (≈ 4.67 µM) | 1.56 (≈ 4.67 µM) | 1.56 (≈ 4.67 µM) | 3.12 (≈ 9.35 µM) | 6.25 (≈ 18.7 µM) | 6.25 (≈ 18.7 µM) | – | – |
| Clc1ccc(/C=N/Nc2nc(-c3ccc(Cl)cc3)cs2)cc1 | > 50 | 12.5 (≈ 35.9 µM) | > 50 | > 50 | – | 6.25 (≈ 17.9 µM) | – | – |
| Oc1c(Cl)cc(Cl)cc1/C=N/Nc1nc(-c2ccccc2)cs1 | 25 (≈ 68.6 µM) | > 50 | 25 (≈ 68.6 µM) | 12.5 (≈ 34.3 µM) | – | > 50 | – | – |
| Fc1ccc(/C=N/Nc2nc(-c3ccccc3)cs2)cc1 | 12.5 (≈ 42 µM) | 6.25 (≈ 21 µM) | > 50 | > 50 | – | 12.5 (≈ 42 µM) | – | – |
| Oc1c(Cl)cc(Cl)cc1/C=N/Nc1nc(-c2ccc(Cl)c(Cl)c2)cs1 | 12.5 (≈ 28.9 µM) | 6.25 (≈ 14.4 µM) | 12.5 (≈ 28.9 µM) | 12.5 (≈ 28.9 µM) | – | 6.25 (≈ 14.4 µM) | 16.5 | > 10000 |
| Fc1ccc(/C=N/Nc2nc(-c3ccc(Cl)c(Cl)c3)cs2)cc1 | 6.25 (≈ 17.1 µM) | 0.78 (≈ 2.13 µM) | 6.25 (≈ 17.1 µM) | 25 (≈ 68.3 µM) | 25 (≈ 68.3 µM) | 25 (≈ 68.3 µM) | – | – |
| Clc1ccc(-c2csc(N/N=C/c3ccc(Br)cc3)n2)cc1 | 12.5 (≈ 31.8 µM) | 12.5 (≈ 31.8 µM) | 25 (≈ 63.7 µM) | 12.5 (≈ 31.8 µM) | – | > 50 | – | – |
| Oc1ccc(Br)cc1/C=N/Nc1nc(-c2ccc(Cl)c(Cl)c2)cs1 | 12.5 (≈ 28.2 µM) | 25 (≈ 56.4 µM) | > 50 | 12.5 (≈ 28.2 µM) | – | 12.5 (≈ 28.2 µM) | 43.4 | > 10000 |
| Oc1ccc(Cl)cc1/C=N/Nc1nc(-c2ccc(Cl)cc2)cs1 | 6.25 (≈ 17.2 µM) | 12.5 (≈ 34.3 µM) | 25 (≈ 68.6 µM) | 12.5 (≈ 34.3 µM) | – | 12.5 (≈ 34.3 µM) | 11.7 | > 10000 |
| Cc1ccc(/C=N/Nc2nc(-c3ccccc3)cs2)cc1 | > 50 | 25 (≈ 85.2 µM) | > 50 | > 50 | – | 25 (≈ 85.2 µM) | – | – |
| Clc1ccc(-c2csc(N/N=C/c3ccc(Br)cc3)n2)cc1Cl | 6.25 (≈ 14.6 µM) | 3.12 (≈ 7.32 µM) | 25 (≈ 58.5 µM) | > 50 | 12.5 (≈ 29.3 µM) | 12.5 (≈ 29.3 µM) | – | – |
| COc1ccc(/C=N/Nc2nc(-c3ccc(Cl)c(Cl)c3)cs2)cc1 | 25 (≈ 66.1 µM) | 25 (≈ 66.1 µM) | > 50 | 6.25 (≈ 16.5 µM) | – | 25 (≈ 66.1 µM) | – | – |
| NC[C@H]1O[C@H](O[C@H]2[C@H](O)[C@@H](O[C@H]3O[C@H](CO)[C@@H](O)[C@H](N)[C@H]3O)[C@H](N)C[C@@H]2N)[C@H](N)[C@@H](O)[C@@H]1O [BEKANAMYCIN] | 0.39 (≈ 0.807 µM) | 1.56 (≈ 3.23 µM) | 3.12 (≈ 6.46 µM) | 1.56 (≈ 3.23 µM) | 3.12 (≈ 6.46 µM) | 3.12 (≈ 6.46 µM) | – | – |

More lines, main results first:

| MIC (Bacillus subtilis) [µg/mL] | MIC (Staphylococcus aureus) [µg/mL] | MIC (Enterococcus faecalis) [µg/mL] | MIC (Enterobacter cloacae) [µg/mL] | MIC (Escherichia coli) [µg/mL] | MIC (Pseudomonas aeruginosa) [µg/mL] | IC50 [1] [µM] | SMILES | LC30 [2] [µg/mL] |
| --- | --- | --- | --- | --- | --- | --- | --- | --- |
| 12.5 (≈ 32.7 µM) | 1.56 (≈ 4.08 µM) | 25 (≈ 65.3 µM) | 25 (≈ 65.3 µM) | 12.5 (≈ 32.7 µM) | 12.5 (≈ 32.7 µM) | – | Clc1ccc(/C=N/Nc2nc(-c3ccc(Cl)c(Cl)c3)cs2)cc1 | – |
| > 50 | 12.5 (≈ 31.4 µM) | 12.5 (≈ 31.4 µM) | > 50 | – | 12.5 (≈ 31.4 µM) | 39.6 | Oc1ccc(Cl)cc1/C=N/Nc1nc(-c2ccc(Cl)c(Cl)c2)cs1 | > 10000 |
| 12.5 (≈ 27.6 µM) | > 50 | 25 (≈ 55.2 µM) | 25 (≈ 55.2 µM) | 25 (≈ 55.2 µM) | 25 (≈ 55.2 µM) | – | Oc1c(Br)cc(Br)cc1/C=N/Nc1nc(-c2ccccc2)cs1 | – |
| 25 (≈ 61.2 µM) | 6.25 (≈ 15.3 µM) | 12.5 (≈ 30.6 µM) | 6.25 (≈ 15.3 µM) | – | 6.25 (≈ 15.3 µM) | 6.8 | Oc1ccc(Br)cc1/C=N/Nc1nc(-c2ccc(Cl)cc2)cs1 | > 10000 |
| > 50 | 25 (≈ 51.3 µM) | > 50 | 6.25 (≈ 12.8 µM) | – | 25 (≈ 51.3 µM) | 78.4 | Oc1c(Br)cc(Br)cc1/C=N/Nc1nc(-c2ccc(Cl)cc2)cs1 | > 10000 |
| 25 (≈ 80.8 µM) | > 50 | > 50 | > 50 | – | > 50 | – | COc1ccc(/C=N/Nc2nc(-c3ccccc3)cs2)cc1 | – |
| 3.12 (≈ 5.99 µM) | 6.25 (≈ 12 µM) | 6.25 (≈ 12 µM) | 3.12 (≈ 5.99 µM) | – | 3.12 (≈ 5.99 µM) | 3.6 | Oc1c(Br)cc(Br)cc1/C=N/Nc1nc(-c2ccc(Cl)c(Cl)c2)cs1 | > 10000 |
| 12.5 (≈ 33.4 µM) | 25 (≈ 66.8 µM) | 12.5 (≈ 33.4 µM) | 25 (≈ 66.8 µM) | – | 25 (≈ 66.8 µM) | – | Oc1ccc(Br)cc1/C=N/Nc1nc(-c2ccccc2)cs1 | – |
| 12.5 (≈ 36.4 µM) | 25 (≈ 72.7 µM) | > 50 | > 50 | – | 25 (≈ 72.7 µM) | – | COc1ccc(/C=N/Nc2nc(-c3ccc(Cl)cc3)cs2)cc1 | – |
| > 50 | > 50 | 12.5 (≈ 31.4 µM) | > 50 | 6.25 (≈ 15.7 µM) | 6.25 (≈ 15.7 µM) | 57.6 | Oc1c(Cl)cc(Cl)cc1/C=N/Nc1nc(-c2ccc(Cl)cc2)cs1 | > 10000 |
| 6.25 (≈ 19.1 µM) | 25 (≈ 76.3 µM) | 12.5 (≈ 38.1 µM) | 6.25 (≈ 19.1 µM) | – | 25 (≈ 76.3 µM) | – | Cc1ccc(/C=N/Nc2nc(-c3ccc(Cl)cc3)cs2)cc1 | – |
| > 50 | 25 (≈ 69 µM) | > 50 | 12.5 (≈ 34.5 µM) | 25 (≈ 69 µM) | 25 (≈ 69 µM) | – | Cc1ccc(/C=N/Nc2nc(-c3ccc(Cl)c(Cl)c3)cs2)cc1 | – |
| > 50 | 12.5 (≈ 34.9 µM) | 1.56 (≈ 4.36 µM) | 25 (≈ 69.8 µM) | – | 12.5 (≈ 34.9 µM) | – | Brc1ccc(/C=N/Nc2nc(-c3ccccc3)cs2)cc1 | – |
| > 50 | > 50 | 25 (≈ 75.8 µM) | > 50 | 12.5 (≈ 37.9 µM) | 12.5 (≈ 37.9 µM) | – | Oc1ccc(Cl)cc1/C=N/Nc1nc(-c2ccccc2)cs1 | – |
| 12.5 (≈ 37.7 µM) | 6.25 (≈ 18.8 µM) | 12.5 (≈ 37.7 µM) | 25 (≈ 75.3 µM) | – | 25 (≈ 75.3 µM) | – | Fc1ccc(/C=N/Nc2nc(-c3ccc(Cl)cc3)cs2)cc1 | – |
| 25 (≈ 79.7 µM) | 25 (≈ 79.7 µM) | 25 (≈ 79.7 µM) | 25 (≈ 79.7 µM) | – | 25 (≈ 79.7 µM) | – | Clc1ccc(/C=N/Nc2nc(-c3ccccc3)cs2)cc1 | – |
